{"source": "patent US6379670B1", "about": "“Methods for treatment of multiple sclerosis using peptide analogs of human myelin basic protein” (Neurocrine Biosciences, Inc., priority 1994, dated 2002)", "system": "NBI-5788-reactive or MBP-reactive T cell lines from MS patients", "assay": "Cross-reactivity of T cell lines (TCL) from MS patients, 3H-thymidine proliferation", "assay_type": "cell-based, human", "experimental": "To evaluate the degree of NBI-5788-specific reactivity induced by NBI-5788 treatment, we determined whether NBI-5788-reactive T cell lines generated from untreated or NBI-5788-treated patients cross-reacted with whole MBP or MBP peptide 83-99. T cell lines were generated from positive cultures in the frequency analysis by an additional cycle of co-culture with antigen. Specificity of positive lines was tested by culturing 2×10^4 T cells/well in triplicate with whole MBP, MBP83-99, NBI-5788 or medium alone in the presence of 10^5 APCs in a final volume of 200 μl/well. Two days later supernatants were pooled from replicate wells and frozen at −80° C. Wells were then pulsed with [^3H]-thymidine (1 μCi/well) for the final 18 hours of culture.", "key": {"[1]": {"conditions": "patient MS-1, dose 20 mg, TCL 4"}}, "note": "Non-standard residues stand in square brackets, D forms with d. No end group written: not given here.", "data": [{"substance": "MBP(83-99) (83E>a, 84N>K, 89F>L, and 91K>A) ([dA]KPVVHLFANIVTPRTP) [NBI-5788]", "values": [{"measurement": "whole MBP-reactive TCL from treated patients cross-reacting with NBI-5788", "setting": "1 of 35 TCL", "result": 2.9, "unit": "%"}, {"measurement": "NBI-5788-reactive TCL from treated patients cross-reacting with whole MBP", "setting": "1 of 43 TCL", "result": 2.3, "unit": "%"}, {"measurement": "NBI-5788-reactive TCL from treated patients cross-reacting with both MBP83-99 and whole MBP", "setting": "2 of 43 TCL", "result": 4.7, "unit": "%"}, {"measurement": "whole MBP-reactive TCL from treated patients cross-reacting with MBP83-99 and NBI-5788", "setting": "3 of 35 TCL", "result": 8.6, "unit": "%"}, {"measurement": "whole MBP-reactive TCL from treated patients cross-reacting with MBP-83-99", "setting": "6 of 35 TCL", "result": 17.1, "unit": "%"}, {"measurement": "NBI-5788-reactive TCL from treated patients cross-reacting with MBP83-99", "setting": "12 of 43 TCL", "result": 27.9, "unit": "%"}, {"measurement": "proliferative response of MBP-reactive TCL to antigen", "setting": "patient MS-1, dose 20 mg, TCL 2", "result": "6,090 ± 102"}, {"measurement": "proliferative response of MBP-reactive TCL to antigen", "setting": "[1]", "result": "4,164 ± 123"}, {"measurement": "proliferative response of NBI-5788-reactive TCL to antigen", "setting": "[1]", "result": "4,112 ± 349"}, {"measurement": "proliferative response of MBP-reactive TCL to antigen", "setting": "patient MS-1, dose 20 mg, TCL 5", "result": "3,115 ± 56"}, {"measurement": "proliferative response of MBP-reactive TCL to antigen", "setting": "patient MS-1, dose 20 mg, TCL 10", "result": "2,794 ± 152"}, {"measurement": "proliferative response of MBP-reactive TCL to antigen", "setting": "patient MS-1, dose 20 mg, TCL 14", "result": "15,780 ± 214"}, {"measurement": "proliferative response of MBP-reactive TCL to antigen", "setting": "patient MS-1, dose 20 mg, TCL 26", "result": "2,559 ± 74"}, {"measurement": "proliferative response of NBI-5788-reactive TCL to antigen", "setting": "patient MS-1, dose 20 mg, TCL 36", "result": "18,259 ± 2011"}, {"measurement": "proliferative response of MBP-reactive TCL to antigen", "setting": "patient MS-1, dose 20 mg, TCL 45", "result": "2,559 ± 637"}, {"measurement": "proliferative response of MBP-reactive TCL to antigen", "setting": "patient MS-2, dose 20 mg, TCL 14", "result": "2,566 ± 421"}, {"measurement": "proliferative response of MBP-reactive TCL to antigen", "setting": "patient MS-3, Pretreat., TCL 9", "result": "6,468 ± 586"}, {"measurement": "proliferative response of NBI-5788-reactive TCL to antigen", "setting": "patient MS-3, dose 20 mg, TCL 2", "result": "19,315 ± 1,310"}, {"measurement": "proliferative response of NBI-5788-reactive TCL to antigen", "setting": "patient MS-3, dose 20 mg, TCL 4", "result": "50,630 ± 11,709"}, {"measurement": "proliferative response of NBI-5788-reactive TCL to antigen", "setting": "patient MS-3, dose 20 mg, TCL 18", "result": "10,308 ± 1,283"}, {"measurement": "proliferative response of NBI-5788-reactive TCL to antigen", "setting": "patient MS-3, dose 20 mg, TCL 30", "result": "48,278 ± 1,070"}, {"measurement": "proliferative response of MBP-reactive TCL to antigen", "setting": "patient MS-4, dose 20 mg, TCL 7", "result": "7,492 ± 716"}, {"measurement": "proliferative response of NBI-5788-reactive TCL to antigen", "setting": "patient MS-4, dose 20 mg, TCL 18", "result": "26,017 ± 802"}, {"measurement": "proliferative response of NBI-5788-reactive TCL to antigen", "setting": "patient MS-5, dose 20 mg, TCL 15", "result": "32,597 ± 1,856"}, {"measurement": "proliferative response of NBI-5788-reactive TCL to antigen", "setting": "patient MS-5, dose 20 mg, TCL 39", "result": "24,326 ± 3,724"}, {"measurement": "proliferative response of NBI-5788-reactive TCL to antigen", "setting": "patient MS-5, dose 20 mg, TCL 43", "result": "16,726 ± 1,121"}, {"measurement": "proliferative response of NBI-5788-reactive TCL to antigen", "setting": "patient MS-6, dose 10 mg, TCL 22", "result": "43,085 ± 1,376"}, {"measurement": "proliferative response of NBI-5788-reactive TCL to antigen", "setting": "patient MS-6, dose 10 mg, TCL 38", "result": "24,195 ± 613"}, {"measurement": "proliferative response of NBI-5788-reactive TCL to antigen", "setting": "patient MS-7, dose 5 mg, TCL 12", "result": "17,749 ± 1,784"}, {"measurement": "proliferative response of NBI-5788-reactive TCL to antigen", "setting": "patient MS-7, dose 5 mg, TCL 28", "result": "3,505 ± 1,446"}, {"measurement": "proliferative response of MBP-reactive TCL to antigen", "setting": "patient MS-7, dose 5 mg, TCL 46", "result": "1,298 ± 113"}, {"measurement": "proliferative response of MBP-reactive TCL to antigen", "setting": "patient MS-8, Placebo, TCL 26", "result": "944 ± 259"}, {"measurement": "proliferative response of MBP-reactive TCL to antigen", "setting": "patient MS-8, Placebo, TCL 28", "result": "1,437 ± 97"}, {"measurement": "proliferative response of MBP-reactive TCL to antigen", "setting": "patient MS-8, Placebo, TCL 38", "result": "16,931 ± 1938"}, {"measurement": "proliferative response of MBP-reactive TCL to antigen", "setting": "patient MS-8, Pretreat., TCL 22", "result": "2,636 ± 270"}, {"measurement": "proliferative response of MBP-reactive TCL to antigen", "setting": "patient MS-8, Pretreat., TCL 31", "result": "936 ± 123"}, {"measurement": "proliferative response of MBP-reactive TCL to antigen", "setting": "patient MS-8, Pretreat., TCL 47", "result": "3,448 ± 1,980"}]}]}
